The values that follow are results of earlier work, collected in patent US9901523B2, “Oral care products comprising zinc oxide and trimethylglycine” (Colgate-Palmolive Company, priority 2012, dated 2018).

For this data set the following is noted: water at 30° C.

In the case of `[O]=[Zn]` [Zinc oxide], the “solubility of zinc oxide” value was “about 0.16 mg per 100 ml of water”.
